Source: ChEMBL document CHEMBL1201862, “PubChem BioAssay data set” (2004)
Calls of active or inactive are those of the source.

Tests used:
[1] = biological target: Cytochrome P450 2D6 (Homo sapiens, UniProt P10635);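 further: CYP2D6 member of a cytochrome P450 panel assay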
[2] = biological target: Major prion protein (Homo sapiens, UniProt P04156); assay type: functional, cell-based
[3] = cells
[4] = human group III sPLA2 inhibitors, dose response, biochemical, QFRET, IC50 (AID 743457);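 further: green fluorescence rise as the enzyme cleaves BODIPY PC-A2 in liposomes; potency for inhibition of the enzyme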
[5] = biological target: Albumin (Bos taurus, UniProt P02769); test: Counterscreen for inhibitors of T-cell receptor (TCR)-CD3 interaction: Fluorescence-based biochemical high throughput dose response assay to identify inhibitors of T-cell receptor (TCR)-CD3 interaction using a TAMRA-labeled BSA probe.; assay type: functional
[6] = cells; remark: listed apart in the source
[7] = biological target: T1, Oxysterols receptor LXR-beta (Homo sapiens, UniProt P55055); assay type: functional, cell-based;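 further: Cell-based luminescence dose-response assay of agonist activity at LXR, run as a confirmatory counterscreen to a daf-12 agonist screen; HEK293 cells with Gal4-LXR fusion and GAL4-driven luciferase reporter; agonist potency from rising luciferase signal of a Gal4-LXR reporter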
T1 sequence (P55055 whole entry): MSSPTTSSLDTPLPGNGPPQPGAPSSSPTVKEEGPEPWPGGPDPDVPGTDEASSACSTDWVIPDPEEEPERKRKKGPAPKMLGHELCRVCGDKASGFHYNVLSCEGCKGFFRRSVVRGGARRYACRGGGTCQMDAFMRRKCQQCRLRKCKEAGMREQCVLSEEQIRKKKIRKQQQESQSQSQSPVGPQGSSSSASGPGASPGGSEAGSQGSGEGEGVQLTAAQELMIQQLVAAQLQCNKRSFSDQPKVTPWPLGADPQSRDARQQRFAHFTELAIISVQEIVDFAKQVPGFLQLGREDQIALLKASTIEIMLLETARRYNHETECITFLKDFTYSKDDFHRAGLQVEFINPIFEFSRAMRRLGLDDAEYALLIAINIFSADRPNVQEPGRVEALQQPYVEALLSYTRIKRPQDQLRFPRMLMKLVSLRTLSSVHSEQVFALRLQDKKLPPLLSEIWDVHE

[8] = biological target: T2, Polyadenylate-binding protein 1 (Homo sapiens, UniProt P11940); test: PABP1 MLLE–PAM2 binding inhibitor potency, dose response, biochemical, fluorescence polarization, FITC-PAM2 peptide (AID 602259); assay type: functional; settings: read-out: IC50_Mean
[9] = biological target: T2, Polyadenylate-binding protein 1; test: PABP1 MLLE–PAM2 interaction inhibitors, dose response, miRNA deadenylation inhibitor project, biochemical, fluorescence polarization, Cy5-PAM2 peptide, secondary (AID 602260); assay type: functional; settings: read-out: IC50_Mean
[10] = biological target: Nonstructural protein 1 (Influenza A virus, UniProt Q194T2); assay type: functional, Influenza A virus (A/California/07/2009(H1N1))
[11] = biological target: Peroxisome proliferator-activated receptor gamma/Nuclear receptor coactivator 3 (Homo sapiens, UniProt P37231); test: TR-FRET dose response biochemical High Throughput Screening assay for agonists of the steroid receptor coactivator 3 (SRC-3) recruitment by the peroxisome proliferator-activated receptor gamma (PPAR gamma): non-selective agonists. [Related pubchem assays: 1301 (Confirmation screen.), 1048 (Primary screen.)]; assay type: functional
[12] = biological target: Peroxisome proliferator-activated receptor gamma/Nuclear receptor coactivator 2 (Homo sapiens, UniProt P37231); test: (§1) TR-FRET dose response biochemical High Throughput Screening assay for agonists of the steroid receptor coactivator 2 (SRC-2) recruitment by the peroxisome proliferator-activated receptor gamma (PPAR gamma): non-selective agonists. [Related pubchem assays: 1297, 1032 ]; assay type: functional
[13] = biological target: Cytochrome P450 2C9 (Homo sapiens, UniProt P11712)
[14] = biological target: Peroxisome proliferator-activated receptor gamma/Nuclear receptor coactivator 1 (Homo sapiens, UniProt P37231); test: as §1, with “1 (SRC-1)” for “2 (SRC-2)”, “assays (depositor defined):AID1300, AID1808, AID504735, AID631]” for “assays: 1297, 1032 ]”; assay type: protein assay
[15] = biological target: T3, Rac GTPase-activating protein 1 (Homo sapiens, UniProt Q9H0H5); test: MgcRacGAP GTPase-activating activity inhibitors, confirmation, biochemical, ADP Hunter fluorescence, primary and confirmatory (AID 624330); assay type: functional
T3 sequence (Q9H0H5 whole entry): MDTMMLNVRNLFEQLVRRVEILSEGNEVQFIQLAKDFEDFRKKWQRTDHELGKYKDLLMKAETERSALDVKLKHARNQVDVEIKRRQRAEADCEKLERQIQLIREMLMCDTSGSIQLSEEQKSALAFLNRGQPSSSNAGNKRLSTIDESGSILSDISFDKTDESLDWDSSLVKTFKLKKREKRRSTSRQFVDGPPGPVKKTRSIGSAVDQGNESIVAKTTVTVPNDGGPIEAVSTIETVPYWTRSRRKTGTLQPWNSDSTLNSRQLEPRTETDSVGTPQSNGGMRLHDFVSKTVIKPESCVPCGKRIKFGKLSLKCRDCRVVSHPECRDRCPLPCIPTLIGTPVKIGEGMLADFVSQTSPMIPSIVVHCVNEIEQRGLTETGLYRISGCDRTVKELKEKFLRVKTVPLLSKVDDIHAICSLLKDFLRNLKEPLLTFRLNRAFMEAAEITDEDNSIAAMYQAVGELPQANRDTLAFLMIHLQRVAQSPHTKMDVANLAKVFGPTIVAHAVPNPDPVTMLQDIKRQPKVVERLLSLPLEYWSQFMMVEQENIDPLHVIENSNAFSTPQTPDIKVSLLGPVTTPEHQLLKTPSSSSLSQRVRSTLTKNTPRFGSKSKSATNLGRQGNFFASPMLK

[16] = test system: Streptococcus; test: Group A Streptococcus viability loss, dose response, counter-screen for streptokinase expression inhibitor project, luminescence, BacTiterGlo (AID 1915); assay type: functional, organism-based;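 further: potency for reduction of bacterial viability or growth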
[17] = test system: Streptococcus sp. 'group A'; test: growth inhibition of control SK(-) GAS strain, dose response, counter-screen for streptokinase expression inhibitor project, luminescence, kanamycin, BacTiterGlo, confirmation (AID 1900); assay type: functional, organism-based
[18] = biological target: T4, Aminopeptidase N (Plasmodium falciparum FcB1/Columbia, UniProt O96935); test: P. falciparum M1AAP inhibitors, biochemical, fluorogenic H-Leu-NHMec substrate, 1536-well (AID 1445); design: species or system Plasmodium falciparum 3D7, 3D7
T4 sequence (O96935 whole entry): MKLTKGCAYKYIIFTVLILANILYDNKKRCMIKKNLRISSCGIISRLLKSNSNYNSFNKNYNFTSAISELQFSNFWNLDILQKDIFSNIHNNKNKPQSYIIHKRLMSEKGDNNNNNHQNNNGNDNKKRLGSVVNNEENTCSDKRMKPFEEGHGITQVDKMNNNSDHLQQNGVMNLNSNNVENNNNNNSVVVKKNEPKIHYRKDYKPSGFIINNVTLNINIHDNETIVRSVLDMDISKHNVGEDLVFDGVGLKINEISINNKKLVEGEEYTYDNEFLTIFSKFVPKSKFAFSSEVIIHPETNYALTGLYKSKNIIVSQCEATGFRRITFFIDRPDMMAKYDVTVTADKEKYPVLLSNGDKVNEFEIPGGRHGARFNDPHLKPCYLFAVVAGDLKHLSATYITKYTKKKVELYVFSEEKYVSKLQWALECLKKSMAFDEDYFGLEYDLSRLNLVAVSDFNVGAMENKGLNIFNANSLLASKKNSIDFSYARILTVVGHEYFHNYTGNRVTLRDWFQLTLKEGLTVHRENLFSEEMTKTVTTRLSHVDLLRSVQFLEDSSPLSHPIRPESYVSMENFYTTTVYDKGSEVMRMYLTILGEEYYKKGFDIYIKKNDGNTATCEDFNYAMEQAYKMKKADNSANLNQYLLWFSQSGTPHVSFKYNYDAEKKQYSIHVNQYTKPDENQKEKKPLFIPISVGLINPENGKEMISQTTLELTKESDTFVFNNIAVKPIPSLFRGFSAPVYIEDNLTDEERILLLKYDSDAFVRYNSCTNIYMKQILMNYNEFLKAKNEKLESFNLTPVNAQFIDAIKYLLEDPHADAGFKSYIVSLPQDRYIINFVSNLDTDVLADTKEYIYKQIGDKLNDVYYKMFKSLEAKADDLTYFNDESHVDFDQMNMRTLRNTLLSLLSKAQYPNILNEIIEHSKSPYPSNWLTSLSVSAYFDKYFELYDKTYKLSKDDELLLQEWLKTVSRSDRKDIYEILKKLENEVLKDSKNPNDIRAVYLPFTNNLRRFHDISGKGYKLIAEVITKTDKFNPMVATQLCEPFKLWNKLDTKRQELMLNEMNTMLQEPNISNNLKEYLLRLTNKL

[19] = HEK293T cytotoxicity, dose response, cytotoxicity control for miR-122 modulator project, cell-based, activator set, cherry-pick (AID 720690); assay type: functional;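 further: HEK293T human cells scored for general mammalian cytotoxicity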
[20] = biological target: T5, Histone-lysine N-methyltransferase NSD2 (Homo sapiens, UniProt O96028); assay type: biochemical
T5 sequence (O96028 whole entry): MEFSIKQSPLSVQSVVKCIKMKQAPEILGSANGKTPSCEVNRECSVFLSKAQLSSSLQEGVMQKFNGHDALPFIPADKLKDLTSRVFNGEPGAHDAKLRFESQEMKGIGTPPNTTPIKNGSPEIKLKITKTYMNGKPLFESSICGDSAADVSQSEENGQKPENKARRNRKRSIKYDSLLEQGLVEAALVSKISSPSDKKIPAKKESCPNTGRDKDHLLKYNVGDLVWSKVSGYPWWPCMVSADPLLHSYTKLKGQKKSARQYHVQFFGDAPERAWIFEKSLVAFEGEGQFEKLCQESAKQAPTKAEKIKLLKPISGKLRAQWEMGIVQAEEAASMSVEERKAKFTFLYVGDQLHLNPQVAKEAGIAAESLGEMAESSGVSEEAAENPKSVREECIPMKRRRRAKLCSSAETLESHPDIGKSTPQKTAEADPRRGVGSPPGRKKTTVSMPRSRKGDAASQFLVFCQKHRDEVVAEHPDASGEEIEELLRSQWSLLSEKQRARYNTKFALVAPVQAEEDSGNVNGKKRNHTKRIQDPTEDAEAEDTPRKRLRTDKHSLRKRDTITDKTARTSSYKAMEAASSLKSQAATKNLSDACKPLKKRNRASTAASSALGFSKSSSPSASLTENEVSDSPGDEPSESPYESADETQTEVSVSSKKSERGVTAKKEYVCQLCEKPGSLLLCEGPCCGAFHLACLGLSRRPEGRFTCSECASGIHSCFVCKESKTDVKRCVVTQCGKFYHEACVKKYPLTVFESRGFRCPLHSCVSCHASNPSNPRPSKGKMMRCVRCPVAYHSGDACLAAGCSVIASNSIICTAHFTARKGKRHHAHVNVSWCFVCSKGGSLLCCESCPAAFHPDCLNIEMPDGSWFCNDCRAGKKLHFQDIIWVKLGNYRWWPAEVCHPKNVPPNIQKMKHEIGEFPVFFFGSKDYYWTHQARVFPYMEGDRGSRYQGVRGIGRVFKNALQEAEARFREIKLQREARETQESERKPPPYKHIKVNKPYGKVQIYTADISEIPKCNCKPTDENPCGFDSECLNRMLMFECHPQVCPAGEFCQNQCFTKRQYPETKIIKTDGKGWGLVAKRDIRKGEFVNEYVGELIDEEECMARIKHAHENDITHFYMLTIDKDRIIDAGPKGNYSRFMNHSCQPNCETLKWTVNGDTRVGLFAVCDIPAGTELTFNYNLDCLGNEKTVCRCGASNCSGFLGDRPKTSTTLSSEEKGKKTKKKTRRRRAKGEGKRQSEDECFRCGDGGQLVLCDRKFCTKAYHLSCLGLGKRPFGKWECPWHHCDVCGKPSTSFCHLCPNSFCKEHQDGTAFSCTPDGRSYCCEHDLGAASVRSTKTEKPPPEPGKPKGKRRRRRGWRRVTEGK

SMILES: Clc1cccc(Nc2ncnc3ccc(Br)cc23)c1
- AC50 [1]: 31.6 µM (inconclusive)
- IC50 [2]: 6.28 µM (active)
- IC50 [3]: 122 µM (inactive)

SMILES: CCN(CC)S(=O)(=O)c1ccc(NC(=O)CSc2ncnc3ccccc23)cc1
- IC50 [2]: 7.17 µM (active)
- IC50 [3]: > 138 µM (inactive)

SMILES: CCOc1cc(NC(=O)C(C)C)c(OCC)cc1N=C(S)NCc1ccccc1
- IC50 [4]: > 122 µM (inactive)

SMILES: COc1cccc(OCC(=O)NNC(=O)c2ccc3ccccc3c2O)c1
- IC50 [4]: > 122 µM (inactive)
- IC50 [5]: > 94.1 µM (inactive)

SMILES: COc1ccc(-c2cc3ccccc3c(=O)o2)cc1
- EC50 [6]: > 67.5 µM (inactive)
- EC50 [7]: > 67.5 µM (inactive)

SMILES: CC(C)c1nc(SCC(=O)N2CC(=O)Nc3ccccc32)c2ccccc2n1
- IC50 [2]: 2.41 µM (active)
- IC50 [3]: 67.3 µM (inactive)

SMILES: O=C(CSc1ncnc2ccccc12)NCc1ccco1
- IC50 [8]: > 66 µM (inactive)
- IC50 [2]: 6.83 µM (active)
- IC50 [3]: > 138 µM (inactive)
- IC50 [9]: > 66 µM (inactive)

SMILES: O=C1c2ccccc2C(=O)c2c1cccc2N1CCOCC1
- IC50 [4]: > 122 µM (inactive)
- IC50 [10]: 19.7 µM (active)

SMILES: c1ccc(Cc2nnc(Sc3ccccc3)c3ccccc23)cc1
- EC50 [11]: > 79.4 µM (not active)
- EC50 [12]: 2.35 µM (active)
- AC50 [13]: 25.1 µM (inconclusive)
- IC50 [2]: 6.51 µM (active)
- EC50 [14]: > 79.4 µM (inactive)
- IC50 [3]: 64 µM (inactive)

SMILES: Cc1ccc(Nc2nnc(S)s2)c(C)c1
- IC50 [15]: 154 µM (active)
- IC50 [4]: > 122 µM (inactive)

SMILES: Cc1[nH]n(-c2ccccc2)c(=O)c1N=Nc1ccccc1O
- EC50 [16]: 2.12 µM (active)
- IC50 [5]: > 94.1 µM (inactive)
- EC50 [17]: 1.48 µM (active)
- IC50 [18]: < 1 µM (active)

SMILES: COCC(=O)N1[C@H](CO)[C@@H](c2ccccc2)[C@H]1CNC(=O)c1ccccn1
- AC50 [19]: 37.2 µM (active)

SMILES: O=C(Nc1ccc(Cl)cc1)N1C[C@H]2[C@@H](c3ccccc31)[C@H](CO)N2CC1CCCCC1
- AC50 [19]: 28.7 µM (active)

SMILES: CC1CCCC(C)N1/N=C/c1ccc(O)c(O)c1 (centres undefined)
- AC50 [20]: 9.77 µM (active)
- IC50 [5]: > 94.1 µM (inactive)
